We go through three molecules from EP3072511A1, “The medical use of 3-aryl substituted 1-indanones” (Centrum Badan Molekularnych I Makromolekularnych Polskiej …, priority 2013, dated 2016).

As a reminder, the IC50 is the concentration at which inhibition is half-maximal.

In experiment [1] the test system is cell line HeLa (cervix carcinoma, human). Put plainly: MTT cytotoxicity test, HeLa cells. Conditions: 48 h, read-out: HeLa IC50 after 48h.
Another experiment concerns bovine diarrhea virus. To be noted: bovine diarrhea virus as counterpart of hepatitis virus C; cited from earlier work.

Consider `COP(=O)(OC)C1C(=O)c2cc3c(cc2C1c1ccccc1)OCO3` (stereo not drawn) [Compound 1a, 2-phosphoryl-3-phenyl substituted 1-indanone], for which the IC50 in experiment [1] came out at 90 µM.

Regarding `COc1cc(OC)c2c(c1)C(=O)CC2c1ccc(Br)cc1` (stereo not drawn) [Compound 3a, 3-(para-bromophenyl) substituted 1-indanone], the IC50 in experiment [1] was 60 µM.

Regarding `NC(=O)c1ncn([C@@H]2O[C@H](CO)[C@@H](O)[C@H]2O)n1` [ribavirin], the “selectivity index (SI)” value in the experiment on bovine diarrhea virus is given as 11.64.
